Data reported in patent US20250073255A1, “USE OF FA-TYPE LIPID COMPOUNDS IN PREPARATION OF NUCLEIC ACID DELIVERY REAGENT AND RELATED PRODUCT” (BEIJING BAISHIKANG PHARMACEUTICAL TECHNOLOGY (BSJPHARMA) …, priority 2021, published 2025).

Tested on: C57BL/6 male mice
Assay: In vivo delivery study of lipid nucleic acid mixture (oral gavage, RT-qPCR of PGY-sRNA-26 in tissues)
Design: species or system mouse
Settings: for oral delivery of single-stranded sRNA nucleic acids into mouse blood / oral delivery of single-stranded sRNA nucleic acids into mouse brain tissue / oral delivery of single-stranded sRNA nucleic acids into mouse femur / oral delivery of single-stranded sRNA nucleic acids into mouse heart tissue / oral delivery of single-stranded sRNA nucleic acids into mouse kidney tissue / oral delivery of single-stranded sRNA nucleic acids into mouse liver tissue / oral delivery of single-stranded sRNA nucleic acids into mouse spleen tissue / oral delivery of single-stranded sRNA nucleic acids into mouse stomach tissue / oral delivery of single-stranded sRNA nucleic acids into mouse intestinal tissue / oral delivery of single-stranded sRNA nucleic acids into mouse lung tissue / oral delivery of single-stranded sRNA nucleic acids into mouse pancreatic tissue: 100 μg lipid:10 nmol PGY-sRNA-26, sampled after 12 hours; for oral delivery of single-stranded sRNA nucleic acids into mouse heart tissue: vs free uptake group; for overall delivery efficacy: delivering nucleic acids into each tissue and blood tested: 100 μg lipid:10 nmol PGY-sRNA-26, all tissues and blood tested; for oral delivery of single-stranded sRNA nucleic acids into mouse intestinal tissue: intestine; for oral delivery of single-stranded sRNA nucleic acids into mouse pancreatic tissue: pancreas
Method in brief: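 Stem-loop RT and SYBR qPCR, normalized to U6, measured PGY-sRNA-26 in blood and organs 12 h after gavage. Dosing was 10 nmol sRNA with 100 μg lipid, pre-mixed and heated 15 min at 90 °C, in 12-h-fasted mice, against saline and free-sRNA groups.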

Structure (SMILES)	oral delivery of single-stranded sRNA nucleic acids into mouse blood	oral delivery of single-stranded sRNA nucleic acids into mouse brain tissue	oral delivery of single-stranded sRNA nucleic acids into mouse femur	oral delivery of single-stranded sRNA nucleic acids into mouse heart tissue	oral delivery of single-stranded sRNA nucleic acids into mouse kidney tissue	oral delivery of single-stranded sRNA nucleic acids into mouse liver tissue	oral delivery of single-stranded sRNA nucleic acids into mouse spleen tissue	oral delivery of single-stranded sRNA nucleic acids into mouse stomach tissue	overall delivery efficacy: delivering nucleic acids into each tissue and blood tested	oral delivery of single-stranded sRNA nucleic acids into mouse intestinal tissue	oral delivery of single-stranded sRNA nucleic acids into mouse lung tissue	oral delivery of single-stranded sRNA nucleic acids into mouse pancreatic tissue
CCCCCCCCCCCCCCC=O [Lipid 574]	can effectively orally deliver	can effectively orally deliver	can effectively orally deliver	can effectively orally deliver	can effectively orally deliver	can effectively orally deliver	can effectively orally deliver	can effectively orally deliver				
CC(C)(CC(=O)O)CC(=O)O [Lipid 598, 3,3-dimethylpentanedioic acid]	can effectively orally deliver	can effectively orally deliver	can effectively orally deliver	can effectively orally deliver	can effectively orally deliver	can effectively orally deliver	can effectively orally deliver	can effectively orally deliver	best delivery efficacy	can effectively orally deliver	can effectively orally deliver	
CCCCCCCC(C)C [Lipid 528, 2-methylnonane]	can effectively orally deliver	can effectively orally deliver	can effectively orally deliver	can effectively orally deliver	can effectively orally deliver	can effectively orally deliver	can effectively orally deliver	can effectively orally deliver	best delivery efficacy	can effectively orally deliver	can effectively orally deliver	
CC/C=C/C=C/C=O [Lipid 618, (2E,4E)-hepta-2,4-dienal]		can effectively orally deliver	can effectively orally deliver			can effectively orally deliver				can effectively orally deliver	can effectively orally deliver	
CCCC/C=C\CCCCCCCC(=O)OCCCCCCCCCCCCCCCCCCCCCC [Lipid 817, docosyl (Z)-tetradec-9-enoate]	can effectively orally deliver	can effectively orally deliver	can effectively orally deliver	can effectively orally deliver	can effectively orally deliver	can effectively orally deliver	can effectively orally deliver	can effectively orally deliver		can effectively orally deliver	can effectively orally deliver	can effectively orally deliver
CCCCCCCCCCCCCCCCCCCC(=O)O [Lipid 624, icosanoic acid]		can effectively orally deliver	can effectively orally deliver	can effectively orally deliver		can effectively orally deliver		can effectively orally deliver		can effectively orally deliver	can effectively orally deliver	
CCCCCCCCCCCCCCCC(=O)NCCO [Lipid 578, N-(2-hydroxyethyl)hexadecanamide]	can effectively orally deliver	can effectively orally deliver	can effectively orally deliver	can effectively orally deliver	can effectively orally deliver	can effectively orally deliver	can effectively orally deliver	can effectively orally deliver			can effectively orally deliver	
CCCCCCCCCCCCCC(=O)OCCCCCCCCCCCCCCC(C)C [Lipid 829, 15-methylhexadecyl tetradecanoate]	can effectively orally deliver	can effectively orally deliver	can effectively orally deliver	can effectively orally deliver	can effectively orally deliver	can effectively orally deliver	can effectively orally deliver	can effectively orally deliver		can effectively orally deliver	can effectively orally deliver	can effectively orally deliver
C=C(CC(=O)O)C(=O)O [Lipid 626, 2-methylidenebutanedioic acid]	can effectively orally deliver	can effectively orally deliver	can effectively orally deliver	can effectively orally deliver	can effectively orally deliver	can effectively orally deliver				can effectively orally deliver	can effectively orally deliver	
COc1cc(CNC(=O)CCCC/C=C/C(C)C)ccc1O [Lipid 537]	can effectively orally deliver	can effectively orally deliver	can effectively orally deliver	can effectively orally deliver	can effectively orally deliver	can effectively orally deliver	can effectively orally deliver	can effectively orally deliver	best delivery efficacy	can effectively orally deliver	can effectively orally deliver	
